Measured values from the supplement of paper PMC13380429.

Assays:
Details in all cases: 72 h
Vero E6 [1] = assay: relative viability EC50 (midpoint between 100% and the lowest measured viability); higher = less toxic
HepG2 [2] = assay: as above
Caco-2 [3] = assay: as above
Calu-3 [4] = assay: as above
U2OS [5] = assay: as above
Vero E6 [6] = assay: cell viability relative to DMSO; higher = less toxic
HepG2 [7] = assay: as above
Caco-2 [8] = assay: as above
Calu-3 [9] = assay: as above
U2OS [10] = assay: as above
Vero E6 [11] = assay: drug sensitivity score (DSS) for viability; higher = more toxic; extreme values may be limits of the assay
HepG2 [12] = assay: as above
Caco-2 [13] = assay: as above
Calu-3 [14] = assay: as above
U2OS [15] = assay: as above

Row | Structure (SMILES) | relative viability EC50 (Vero E6 [1]) | relative viability EC50 (HepG2 [2]) | relative viability EC50 (Caco-2 [3]) | relative viability EC50 (Calu-3 [4]) | relative viability EC50 (U2OS [5]) | cell viability (Vero E6 [6]; 1 nM) | cell viability (Vero E6 [6]; 10 nM) | cell viability (Vero E6 [6]; 100 nM) | cell viability (Vero E6 [6]; 1000 nM) | cell viability (Vero E6 [6]; 10000 nM) | cell viability (HepG2 [7]; 1 nM) | cell viability (HepG2 [7]; 10 nM) | cell viability (HepG2 [7]; 100 nM) | cell viability (HepG2 [7]; 1000 nM) | cell viability (HepG2 [7]; 10000 nM) | cell viability (Caco-2 [8]; 1 nM) | cell viability (Caco-2 [8]; 10 nM) | cell viability (Caco-2 [8]; 100 nM) | cell viability (Caco-2 [8]; 1000 nM) | cell viability (Caco-2 [8]; 10000 nM) | cell viability (Calu-3 [9]; 1 nM) | cell viability (Calu-3 [9]; 10 nM) | cell viability (Calu-3 [9]; 100 nM) | cell viability (Calu-3 [9]; 1000 nM) | cell viability (Calu-3 [9]; 10000 nM) | cell viability (U2OS [10]; 1 nM) | cell viability (U2OS [10]; 10 nM) | cell viability (U2OS [10]; 100 nM) | cell viability (U2OS [10]; 1000 nM) | cell viability (U2OS [10]; 10000 nM) | drug sensitivity score (Vero E6 [11]) | drug sensitivity score (HepG2 [12]) | drug sensitivity score (Caco-2 [13]) | drug sensitivity score (Calu-3 [14]) | drug sensitivity score (U2OS [15])
1 | O=C(Nc1ccc(Cl)nc1)c1ccc(Cl)cc1 | > 10 µM | > 10 µM | > 10 µM | > 10 µM | > 10 µM | 95.4% | 98.7% | 95.9% | 94.1% | 100% | 97.5% | 109% | 106% | 103% | 110% | 103% | 90.2% | 97.8% | 98.8% | 102% | 94.9% | 90.6% | 96.6% | 94.2% | 102% | 95.6% | 94.3% | 101% | 93.2% | 95.7% | 0 | 0 | 0 | 0 | 0
2 | O=C(Nc1ccccc1)N[C@H]1C[C@H](C(=O)O)Nc2cc(Cl)cc(Cl)c21 | > 10 µM | > 10 µM | > 10 µM | > 10 µM | > 10 µM | 106% | 100% | 100% | 96.7% | 99.8% | 96.4% | 103% | 96.3% | 84.6% | 104% | 98.1% | 104% | 104% | 104% | 92.5% | 105% | 89.8% | 108% | 95.8% | 97.1% | 98% | 104% | 103% | 105% | 100% | 0 | 0 | 0 | 0 | 0
3 | OC(CCCN1CCN(c2ncc(F)cn2)CC1)c1ccc(F)cc1 (configuration not stated) | > 10 µM | > 10 µM | > 10 µM | > 10 µM |  | 101% | 98.1% | 94.9% | 99% | 95.4% | 95.8% | 100% | 98.3% | 96% | 97.5% | 98.4% | 99.1% | 101% | 94.2% | 95.7% | 107% | 99.7% | 102% | 104% | 94.7% |  |  |  |  |  | 0 | 0 | 0 | 0 | 
4 | O=C1CS[C@@H](c2ccccc2Cl)c2cc(Cl)ccc2N1 (racemic) | > 10 µM | > 10 µM | > 10 µM | > 10 µM | > 10 µM | 96.6% | 97.6% | 99.1% | 97.8% | 104% | 100% | 98.7% | 96.4% | 110% | 102% | 92.3% | 101% | 92.2% | 98.6% | 90.1% | 94.5% | 100% | 96.7% | 100% | 105% | 106% | 104% | 94.4% | 101% | 102% | 0 | 0 | 0 | 0 | 0
5 | C[C@@H](CN(C)C)CN1c2ccccc2Sc2ccccc21 (racemic) [alimemazine] | > 10 µM |  | > 10 µM | > 10 µM | > 10 µM | 100% | 98.1% | 99.4% | 88.9% | 77.2% | 105% | 101% | 104% | 104% | 70.9% | 112% | 100% | 97.8% | 108% | 80.4% | 97.5% | 94.8% | 101% | 105% | 83.4% | 103% | 95% | 103% | 97% | 94.3% | 1.9 | 1 | 0.3 | 0.2 | 0
6 | C[C@@H]([C@H](O)c1ccc(O)cc1)N1CCC(Cc2ccccc2)CC1 (racemic) [ifenprodil] | > 10 µM | > 10 µM | > 10 µM | > 10 µM | > 10 µM | 101% | 103% | 102% | 98.8% | 97.6% | 103% | 99.5% | 104% | 92.8% | 88.2% | 96.8% | 101% | 96.1% | 98% | 89.8% | 99.4% | 96.5% | 92% | 91.8% | 84.1% | 103% | 101% | 99.9% | 102% | 98.5% | 0 | 0.3 | 0 | 0.6 | 0
7 | Cn1cc(-c2ccc(S(=O)(=O)n3ccc(/C=C/C(=O)Nc4ccccc4N)c3)cc2)cn1 [4SC-202] | 1.12 µM | 0.623 µM | 1.07 µM | 0.26 µM | 1.36 µM | 96.7% | 104% | 91% | 69.9% | 30.8% | 88.5% | 102% | 92.7% | 52.4% | 25.8% | 85.2% | 96.9% | 102% | 73.4% | 42% | 91.7% | 86% | 78.7% | 45.9% | 23.8% | 95.8% | 96.6% | 102% | 72.5% | 13.3% | 7.2 | 10.1 | 6.6 | 13.3 | 8.8
